# Measured values as given in ChEMBL document CHEMBL4813918, “From off-to on-target: New BRAF-inhibitor-template-derived compounds selectively targeting mitogen activated protein kinase kinase 4 (MKK4)” (Eur J Med Chem, 2021).
# Assays:
# [1] = biological target: Mitogen-activated protein kinase kinase kinase kinase 5 (Homo sapiens) (UniProt Q9Y4K4); test: Binding affinity to wild type partial length human MAP4K5 (M1 to P297) expressed in Bacterial expression system assessed as residual activity at 100 nM measured by Kinomescan assay relative to control
# [2] = biological target: T1, Dual specificity mitogen-activated protein kinase kinase 7 (Homo sapiens) (UniProt O14733); test: Binding affinity to wild type full length human MKK7 (M1 to R419 residues) expressed in mammalian expression system assessed as residual activity at 100 nM measured by Kinomescan assay
# T1 sequence (whole entry): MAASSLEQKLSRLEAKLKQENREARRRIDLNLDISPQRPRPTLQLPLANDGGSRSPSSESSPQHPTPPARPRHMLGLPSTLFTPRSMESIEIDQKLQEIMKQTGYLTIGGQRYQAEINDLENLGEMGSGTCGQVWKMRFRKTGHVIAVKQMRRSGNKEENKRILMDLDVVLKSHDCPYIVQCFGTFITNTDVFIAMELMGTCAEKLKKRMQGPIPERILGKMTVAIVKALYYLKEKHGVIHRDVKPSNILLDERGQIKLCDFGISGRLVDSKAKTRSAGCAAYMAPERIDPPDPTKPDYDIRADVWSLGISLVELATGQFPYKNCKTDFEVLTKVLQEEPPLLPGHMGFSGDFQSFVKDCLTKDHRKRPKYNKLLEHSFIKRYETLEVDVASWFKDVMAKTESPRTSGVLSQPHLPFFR
# [3] = biological target: Mitogen-activated protein kinase kinase kinase 20 (Homo sapiens) (UniProt Q9NYL2); test: Binding affinity to wild type partial length human ZAK (M1 to L331) expressed in bacterial expression system assessed as residual activity at 100 nM measured by Kinomescan assay
# Sequence of Mitogen-activated protein kinase kinase kinase 20 (Homo sapiens) (Q9NYL2 2-800 limits assumed): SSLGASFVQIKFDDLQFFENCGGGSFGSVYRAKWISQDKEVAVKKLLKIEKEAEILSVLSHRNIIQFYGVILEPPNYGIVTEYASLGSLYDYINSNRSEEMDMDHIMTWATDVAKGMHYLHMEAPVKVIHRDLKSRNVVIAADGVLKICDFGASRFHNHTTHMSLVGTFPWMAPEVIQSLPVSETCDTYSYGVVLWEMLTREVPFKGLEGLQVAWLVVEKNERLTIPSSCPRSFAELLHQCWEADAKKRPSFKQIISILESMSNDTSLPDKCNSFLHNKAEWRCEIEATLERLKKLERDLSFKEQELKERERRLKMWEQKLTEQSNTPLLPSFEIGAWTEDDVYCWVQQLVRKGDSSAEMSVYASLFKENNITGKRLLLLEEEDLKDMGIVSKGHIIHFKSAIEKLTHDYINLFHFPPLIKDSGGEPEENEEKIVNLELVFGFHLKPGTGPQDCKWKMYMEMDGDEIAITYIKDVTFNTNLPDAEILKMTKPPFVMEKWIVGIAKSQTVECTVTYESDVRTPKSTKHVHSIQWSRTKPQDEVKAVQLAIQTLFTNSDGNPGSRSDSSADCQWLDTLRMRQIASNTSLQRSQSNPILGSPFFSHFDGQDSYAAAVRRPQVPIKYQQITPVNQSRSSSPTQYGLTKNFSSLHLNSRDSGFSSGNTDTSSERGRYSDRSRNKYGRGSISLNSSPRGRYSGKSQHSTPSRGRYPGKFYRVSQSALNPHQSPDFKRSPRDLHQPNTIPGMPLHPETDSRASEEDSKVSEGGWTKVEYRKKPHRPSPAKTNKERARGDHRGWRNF
# Sequence of Mitogen-activated protein kinase kinase kinase kinase 5 (Homo sapiens) (Q9Y4K4 whole entry, looked up, the tested form may be a part): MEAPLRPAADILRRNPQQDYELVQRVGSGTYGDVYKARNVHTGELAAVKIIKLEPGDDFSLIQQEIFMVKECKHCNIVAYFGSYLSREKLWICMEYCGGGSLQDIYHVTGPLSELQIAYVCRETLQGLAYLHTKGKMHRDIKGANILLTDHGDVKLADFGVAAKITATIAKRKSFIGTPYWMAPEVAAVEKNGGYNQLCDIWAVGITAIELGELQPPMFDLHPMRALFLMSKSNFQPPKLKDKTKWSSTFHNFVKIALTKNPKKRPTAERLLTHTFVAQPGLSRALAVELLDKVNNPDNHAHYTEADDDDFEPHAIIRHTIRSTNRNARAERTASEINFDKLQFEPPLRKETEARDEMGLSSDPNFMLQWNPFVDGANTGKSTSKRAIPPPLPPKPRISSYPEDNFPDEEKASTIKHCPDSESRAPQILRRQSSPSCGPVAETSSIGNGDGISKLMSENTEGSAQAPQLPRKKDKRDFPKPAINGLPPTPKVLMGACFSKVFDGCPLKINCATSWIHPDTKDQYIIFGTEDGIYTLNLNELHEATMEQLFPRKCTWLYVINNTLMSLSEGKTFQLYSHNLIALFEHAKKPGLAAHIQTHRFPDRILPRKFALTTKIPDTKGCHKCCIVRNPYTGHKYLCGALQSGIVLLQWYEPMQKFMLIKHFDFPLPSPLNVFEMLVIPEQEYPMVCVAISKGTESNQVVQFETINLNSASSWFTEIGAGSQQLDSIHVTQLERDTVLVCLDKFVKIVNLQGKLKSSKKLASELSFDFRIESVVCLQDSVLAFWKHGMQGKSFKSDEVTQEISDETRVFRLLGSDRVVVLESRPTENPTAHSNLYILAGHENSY
Compound,Activity [1] [%],Activity [2] [%],Activity [3] [%]
CCCS(=O)(=O)Nc1cccc(C(=O)c2c[nH]c3ncc(-c4ccc(Cl)cc4)cc23)c1Cl,79,100,68
CCCS(=O)(=O)Nc1ccc(F)c(C(=O)c2c[nH]c3ncc(-c4ccc(OC)cc4)cc23)c1F,38,70,–
CCCCCCS(=O)(=O)Nc1ccc(F)c(C(=O)c2c[nH]c3ncc(-c4ccc(Cl)cc4)cc23)c1F,99,81,73
CCCCS(=O)(=O)Nc1ccc(F)c(C(=O)c2c[nH]c3ncc(-c4ccc(Cl)cc4)cc23)c1F,75,100,29
CCCS(=O)(=O)Nc1ccc(F)c(C(=O)c2c[nH]c3ncc(-c4cnccn4)cc23)c1F,75,83,11
CCCS(=O)(=O)Nc1ccc(F)c(C(=O)c2c[nH]c3ncc(-c4ccc(F)cc4C)cc23)c1F,100,100,14
O=C(c1cccc(NS(=O)(=O)Cc2ccccc2)c1F)c1c[nH]c2ncc(-c3ccc(Cl)cc3)cc12,72,97,66
CCCS(=O)(=O)Nc1ccc(F)c(C(=O)c2c[nH]c3ncc(-c4cccc(OC)c4)cc23)c1F,18,100,23
CCCS(=O)(=O)Nc1ccc(F)c(C(=O)c2c[nH]c3ncc(-c4ccc(OC)cc4C)cc23)c1F,–,97,13
O=C(c1cccc(NS(=O)(=O)Cc2ccccc2)c1F)c1c[nH]c2ncc(-c3cc4c(cc3Cl)OCO4)cc12,66,100,80
CCCS(=O)(=O)Nc1ccc(F)c(C(=O)c2c[nH]c3ncc(-c4ccc(F)cc4)cc23)c1F,67,100,0.9
Cc1cc(F)ccc1-c1cnc2[nH]cc(C(=O)c3cccc(NS(=O)(=O)Cc4ccccc4)c3F)c2c1,97,98,90
CCCS(=O)(=O)Nc1ccc(F)c(C(=O)c2c[nH]c3ncc(-c4ccc(F)cc4F)cc23)c1F,–,93,5.9
CCCS(=O)(=O)Nc1ccc(F)c(C(=O)c2c[nH]c3ncc(-c4ncccn4)cc23)c1F,92,90,39
CCCS(=O)(=O)Nc1ccc(F)c(C(=O)c2c[nH]c3ncc(-c4ccc5c(c4)OCCO5)cc23)c1F,84,100,2.2
O=C(c1c(F)ccc(NS(=O)(=O)Cc2cccc(F)c2)c1F)c1c[nH]c2ncc(-c3ccc(Cl)cc3)cc12,–,99,36
O=C(c1c(F)ccc(NS(=O)(=O)CCc2ccccc2)c1F)c1c[nH]c2ncc(-c3ccc(Cl)cc3)cc12,100,97,53
O=C(c1cccc(NS(=O)(=O)Cc2ccccc2)c1F)c1c[nH]c2ncc(-c3ccncc3)cc12,26,95,0.95
O=C(c1c(F)ccc(NS(=O)(=O)c2ccccc2)c1F)c1c[nH]c2ncc(-c3ccc(Cl)cc3)cc12,83,83,4.9
O=C(c1cccc(NS(=O)(=O)Cc2ccccc2)c1F)c1c[nH]c2ncc(-c3cccnc3)cc12,20,85,1.7
CCCS(=O)(=O)Nc1ccc(F)c(C(=O)c2c[nH]c3ncc(-c4ccco4)cc23)c1F,78,95,2.1
CCCS(=O)(=O)Nc1ccc(F)c(C(=O)c2c[nH]c3ncc(-c4ccc5c(c4)OCO5)cc23)c1F,76,90,0.45
COCCS(=O)(=O)Nc1ccc(F)c(C(=O)c2c[nH]c3ncc(-c4ccc(Cl)cc4)cc23)c1F,100,75,58
CCCCCS(=O)(=O)Nc1ccc(F)c(C(=O)c2c[nH]c3ncc(-c4ccc(Cl)cc4)cc23)c1F,98,89,55
Cc1cccc(CS(=O)(=O)Nc2ccc(F)c(C(=O)c3c[nH]c4ncc(-c5ccc(Cl)cc5)cc34)c2F)c1,–,100,64
Cc1nc(NC(C)CO)c2c(n1)[nH]c1ccc(O)cc12 (configuration not stated),95,100,81
CS(=O)(=O)Nc1cccc(C(=O)c2c[nH]c3ncc(-c4ccc(Cl)cc4)cc23)c1F,78,81,27
CCCS(=O)(=O)Nc1ccc(F)c(C(=O)c2c[nH]c3ncc(-c4ccc(OC)c(OC)c4)cc23)c1F,14,84,18

Compound,Activity [1] [%],Activity [2] [%],Activity [3] [%]
CCCS(=O)(=O)Nc1ccc(F)c(C(=O)c2c[nH]c3ncc(-c4cncnc4)cc23)c1F,80,81,3.5
COc1ccc(-c2cnc3[nH]cc(C(=O)c4cccc(NS(=O)(=O)Cc5ccccc5)c4F)c3c2)c(Cl)c1,79,100,87
O=C(c1c(F)ccc(NS(=O)(=O)CCCF)c1F)c1c[nH]c2ncc(-c3ccc(Cl)cc3)cc12,80,100,1.4
CS(=O)(=O)Nc1ccc(F)c(C(=O)c2c[nH]c3ncc(-c4ccc(Cl)cc4)cc23)c1F,63,87,2.6
CCCS(=O)(=O)Nc1cccc(C(=O)c2c[nH]c3ncc(-c4ccc(Cl)cc4)cc23)c1C,40,91,–
CCCS(=O)(=O)Nc1ccc(F)c(C(=O)c2c[nH]c3ncc(-c4ccc(F)cc4Cl)cc23)c1F,100,100,19
CCCS(=O)(=O)Nc1ccc(F)c(C(=O)c2c[nH]c3ncc(-c4ccccc4F)cc23)c1F,–,86,2.9
O=C(c1c(F)ccc(NS(=O)(=O)CCC(F)(F)F)c1F)c1c[nH]c2ncc(-c3ccc(Cl)cc3)cc12,54,100,3.5
CCCS(=O)(=O)Nc1ccc(F)c(C(=O)c2c[nH]c3ncc(-c4cc5c(cc4Cl)OCCO5)cc23)c1F,98,97,20
C#Cc1cnc2[nH]cc(C(=O)c3c(F)ccc(NS(=O)(=O)CCC)c3F)c2c1,89,100,1.4
CCCS(=O)(=O)Nc1ccc(F)c(C(=O)c2c[nH]c3ncc(-c4ccc(OC)cc4F)cc23)c1F,–,85,6
Oc1ccc(-c2ncnc3[nH]c4ccc(O)cc4c23)cc1,92,100,84
CCCS(=O)(=O)Nc1ccc(F)c(C(=O)c2c[nH]c3ncc(-c4cccc(F)c4)cc23)c1F,45,90,0.8
Cc1ccc(CS(=O)(=O)Nc2ccc(F)c(C(=O)c3c[nH]c4ncc(-c5ccc(Cl)cc5)cc34)c2F)cc1,–,90,87
CCCS(=O)(=O)Nc1ccc(F)c(C(=O)c2c[nH]c3ncc(-c4ccc(OC)cc4Cl)cc23)c1F,100,100,18
CCCS(=O)(=O)Nc1ccc(F)c(C(=O)c2c[nH]c3ncc(-c4cccc(Cl)c4)cc23)c1F,–,85,2.2
CCCS(=O)(=O)Nc1ccc(F)c(C(=O)c2c[nH]c3ncc(-c4ccc(C)cc4)cc23)c1F,28,89,0.85
CCCS(=O)(=O)Nc1ccc(F)c(C(=O)c2c[nH]c3ncc(-c4ccccc4C)cc23)c1F,67,100,6.9
CCCC(=O)Nc1ccc(F)c(C(=O)c2c[nH]c3ncc(-c4ccc(Cl)cc4)cc23)c1F,91,94,78
O=C(c1c(F)ccc(NS(=O)(=O)Cc2ccccc2F)c1F)c1c[nH]c2ncc(-c3ccc(Cl)cc3)cc12,–,97,23
CCCS(=O)(=O)Nc1ccc(F)c(C(=O)c2c[nH]c3ncc(-c4cnc(OC)nc4)cc23)c1F,86,84,8.9
CCCS(=O)(=O)Nc1ccc(F)c(C(=O)c2c[nH]c3ncc(-c4ccccc4Cl)cc23)c1F,79,100,7.6
CCCS(=O)(=O)Nc1cccc(C(=O)c2c[nH]c3ncc(-c4ccc(Cl)cc4)cc23)c1,44,100,–
CCCS(=O)(=O)Nc1ccc(F)c(C(=O)c2c[nH]c3ncc(-c4cccc(C)c4)cc23)c1F,28,97,0.7
CCCS(=O)(=O)Nc1ccc(F)c(C(=O)c2c[nH]c3ncc(-c4ccccc4OC)cc23)c1F,43,100,16
CCCS(=O)(=O)Nc1ccc(F)c(C(=O)c2c[nH]c3ncc(-c4ccccc4)cc23)c1F,29,100,0.5
O=C(c1c(F)ccc(NS(=O)(=O)Cc2ccc(F)cc2)c1F)c1c[nH]c2ncc(-c3ccc(Cl)cc3)cc12,–,100,61
